12 molecules from patent US20070105890A1, “Novel condensed imidazole derivative” (DAINIPPON SUMITOMO PHARMA CO., LTD, priority 2003, published 2007) can be followed below.

The term pIC50 denotes the IC50 on a negative log10 scale, so that one unit is a factor of ten. A high value points to a small IC50.

Molecules are shown by their SMILES. pIC50: −log10 of the molar value. Structures can show the parent of a compound that is named as a salt.

T1 sequence (P27487 39-766 limits assumed): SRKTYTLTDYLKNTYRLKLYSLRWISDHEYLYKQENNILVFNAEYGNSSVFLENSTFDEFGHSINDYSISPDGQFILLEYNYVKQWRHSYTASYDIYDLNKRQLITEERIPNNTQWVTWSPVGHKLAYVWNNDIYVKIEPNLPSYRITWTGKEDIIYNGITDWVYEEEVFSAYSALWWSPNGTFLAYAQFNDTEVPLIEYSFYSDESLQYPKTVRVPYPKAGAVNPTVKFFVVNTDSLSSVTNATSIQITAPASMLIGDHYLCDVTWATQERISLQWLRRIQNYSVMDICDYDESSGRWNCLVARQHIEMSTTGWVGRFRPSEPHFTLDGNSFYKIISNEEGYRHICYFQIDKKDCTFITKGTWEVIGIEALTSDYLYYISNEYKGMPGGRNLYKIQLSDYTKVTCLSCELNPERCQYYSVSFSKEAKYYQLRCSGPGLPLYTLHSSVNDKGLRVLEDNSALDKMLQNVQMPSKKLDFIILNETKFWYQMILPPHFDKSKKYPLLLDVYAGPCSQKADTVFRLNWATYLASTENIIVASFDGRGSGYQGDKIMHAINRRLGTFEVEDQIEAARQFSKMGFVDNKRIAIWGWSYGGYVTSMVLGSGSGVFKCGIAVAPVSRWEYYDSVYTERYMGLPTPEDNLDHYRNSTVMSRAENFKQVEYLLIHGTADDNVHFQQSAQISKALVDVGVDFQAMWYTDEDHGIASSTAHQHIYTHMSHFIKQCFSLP
T2 sequence (P81425 38-765 limits assumed): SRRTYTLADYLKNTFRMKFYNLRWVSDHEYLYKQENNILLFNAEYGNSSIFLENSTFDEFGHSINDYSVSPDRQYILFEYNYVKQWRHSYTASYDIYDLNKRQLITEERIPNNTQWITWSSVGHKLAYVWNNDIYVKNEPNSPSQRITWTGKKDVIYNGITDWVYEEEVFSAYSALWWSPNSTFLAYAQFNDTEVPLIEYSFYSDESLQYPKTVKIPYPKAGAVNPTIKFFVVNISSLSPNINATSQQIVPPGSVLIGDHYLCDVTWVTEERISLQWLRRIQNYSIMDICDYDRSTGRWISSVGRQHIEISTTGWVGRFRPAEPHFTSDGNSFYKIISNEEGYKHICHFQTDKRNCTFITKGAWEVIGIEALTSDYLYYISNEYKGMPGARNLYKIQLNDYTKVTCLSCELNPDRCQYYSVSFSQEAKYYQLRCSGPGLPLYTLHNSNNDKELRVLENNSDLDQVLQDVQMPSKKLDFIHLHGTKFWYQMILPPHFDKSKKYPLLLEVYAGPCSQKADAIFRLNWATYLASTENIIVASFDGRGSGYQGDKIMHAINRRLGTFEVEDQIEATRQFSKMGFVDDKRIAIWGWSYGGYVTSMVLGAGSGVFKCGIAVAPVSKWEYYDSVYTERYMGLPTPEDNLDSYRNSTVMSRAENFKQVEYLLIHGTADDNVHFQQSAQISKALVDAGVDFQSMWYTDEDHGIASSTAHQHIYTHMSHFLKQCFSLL

The first test has as its target T1, DPP-IV enzyme (Homo sapiens, UniProt P27487).
T1 construct: Human serum containing DPP-IV enzyme was used in an experiment after being diluted with assay buffer; from tissue; host or cells: human serum
Nature of the test: In Vitro DPP-IV Inhibitory Effect Measurement Test (2), human serum. It counts as biochemical. The conditions noted are these: DPP-IV in human serum (diluted 10-fold); substrate Glycyl-L-Proline 4-Methyl-Coumaryl-7-Amide 100 μM; Table 2. The method, then:
In Vitro DPP-IV Inhibitory Effect Measurement Test (2)
Human serum containing DPP-IV enzyme was used in an experiment after being diluted with assay buffer (25 mM Tris-HCl, 140 mM NaCl, 10 mM KCl, pH 7.9) (finally, diluted 10-fold). Each of solutions of each test compound having various concentrations was added to the diluted serum and the resulting mixture was incubated at room temperature. Then, a substrate (Glycyl-L-Proline 4-Methyl-Coumaryl-7-Amide, Peptide Laboratories Co., Ltd.) was added thereto to a final concentration of 100 μM and the reaction was carried out at room temperature.
(§1) Compounds of Examples were used in this test.
In the case of `Cn1c(=O)c2c(nc(N3CCC[C@@H](N)C3)n2Cc2ccccc2Cl)c2csc(C(=O)O)c21` [Example 102, 2-[(3R)-3-Aminopiperidin-1-yl]-3-(2-chlorobenzyl)-5-methyl-4-oxo-4,5-dihydro-3H-imidazo[4,5-d]thieno[3,4-b]pyridine-6-carboxylic acid hydrochloride], the pIC50 was 7.92.

`Cn1c(=O)c2c(nc(N3CCC[C@@H](N)C3)n2Cc2ccccc2Cl)c2c(C(=O)O)c(F)ccc21` [Example 97, 2-[(3R)-3-aminopiperidin-1-yl]-3-(2-chlorobenzyl)-8-fluoro-5-methyl-4-oxo-4,5-dihydro-3H-imidazo[4,5-c]quinoline-9-carboxylic acid hydrochloride] gave a pIC50 of 7.85.

Molecule `Cn1c(=O)c2c(nc(N3CCC[C@@H](N)C3)n2Cc2ccccc2Cl)c2cc3c(cc21)C(=O)OC3` [Example 90, 2-[(3R)-3-Aminopiperidin-1-yl]-3-(2-chlorobenzyl)-5-methyl-5,9-dihydro-3H-furo[3,4-g]imidazo[4,5-c]quinoline-4,7-dione hydrochloride] gave a pIC50 of 7.96. The pIC50 values of the last two molecules are within 0.2 log units of each other.

As for `COC(=O)c1c2c(nn1Cc1ccc(OC)cc1)c1nc(N3CCC[C@@H](N)C3)n(Cc3ccccc3Cl)c1c(=O)n2C` [Example 94, Methyl 7-[(3R)-3-aminopiperidin-1-yl]-6-(2-chlorobenzyl)-2-(4-methoxybenzyl)-4-methyl-5-oxo-2,4,5,6-tetrahydroimidazo[4,5-d]pyrazolo[4,3-b]pyridine-3-carboxylate hydrochloride], the pIC50 is 7.38.

`N[C@@H]1CCCN(c2nc3c4cc(C(=O)O)ccc4[nH]c(=O)c3n2Cc2ccccc2Cl)C1` [Example 48, 2-{(3R)-3-Aminopiperidin-1-yl}-3-(2-chlorobenzyl)-4-oxo-4,5-dihydro-3H-imidazo[4,5-c]quinoline-8-carboxylic acid hydrochloride] had a negative-log IC50 (pIC50) of 7.35.

Another test has as its target T2, DPP-IV enzyme (Bos taurus, UniProt P81425).
T2 construct: Bovine plasma containing DPP-IV enzyme was diluted with assay buffer; from tissue; host or cells: bovine plasma
Nature of the test: In Vitro DPP-IV Inhibitory Effect Measurement Test (1), bovine plasma. It counts as biochemical. Conditions: substrate Glycyl-L-Proline 4-Methyl-Coumaryl-7-Amide, Table 1. The method, then:
In Vitro DPP-IV Inhibitory Effect Measurement Test (1)
Bovine plasma containing DPP-IV enzyme was diluted with assay buffer (25 mM Tris-HCl, 140 mM NaCl, 10 mM KCl, pH=7.9) and 50 μL of the dilution was added to a micro assay plate. After 1 μL of a solution of each compound was added, mixing was conducted, followed by incubation at room temperature. A substrate (Glycyl-L-Proline 4-Methyl-Coumaryl-7-Amide, Peptide Laboratories Co., Ltd.) was diluted to 0.2 mM with the assay buffer, and 50 μL of this solution was added and then stirred, followed by incubation at room temperature. Thereafter, the reaction was terminated by the addition of 100 μL of a 25% aqueous acetic acid solution. The intensity of fluorescence at an excitation wavelength of 360 nm and a measuring wavelength of 460 nm was measured by the use of a fluorescent plate reader. The difference in intensity of fluorescence between a background well in which the reaction had been terminated by previously adding a 25% aqueous acetic acid solution before the addition of the substrate solution and a control well to which no compound had been added was taken as 100%. The intensity of fluorescence of a well containing the compound was interpolated and the residual enzyme activity in the case of the addition of the compound was calculated as a relative value.
as §1
The molecule `Cn1ccc2nc(N3CCC[C@@H](N)C3)n(Cc3cc(F)ccc3Cl)c2c1=O` [Example 11] showed a pIC50 of 7.36.

In the case of `N[C@@H]1CCCN(c2nc3ccn(-c4cccc(F)c4)c(=O)c3n2Cc2ccccc2Cl)C1` [Example 30], the pIC50 is 6.69.

On to `COc1cccc(CC(=O)c2cc3nc(N4CCC[C@@H](N)C4)n(Cc4ccccc4Cl)c3c(=O)n2C)c1` [Example 38], for which the negative-log IC50 (pIC50) is 6.95.

In turn, `N[C@@H]1CCCN(c2nc3cc(C(=O)O)[nH]c(=O)c3n2Cc2ccccc2Cl)C1` [Example 13] gave a pIC50 of 8.30.

`Cn1c(C#N)cc2nc(N3CCC[C@@H](N)C3)n(Cc3ccccc3Cl)c2c1=O` [Example 2, 2-[(3R)-3-Aminopiperidin-1-yl]-3-(2-chlorobenzyl)-5-methyl-4-oxo-4,5-dihydro-3H-imidazo[4,5-c]pyridine-6-carbonitrile hydrochloride] showed a negative-log IC50 (pIC50) of 7.96.

`Cn1ccc2nc(N3CCC[C@@H](N)C3)n(Cc3ccccc3Cl)c2c1=O` [Example 4, 2-[(3R)-3-Aminopiperidin-1-yl]-3-(2-chlorobenzyl)-5-methyl-3,5-dihydro-4H-imidazo[4,5-c]pyridin-4-one] showed a negative-log IC50 (pIC50) of 7.17.

Regarding `N[C@@H]1CCCN(c2nc3ccn(CC(=O)c4ccccc4)c(=O)c3n2Cc2ccccc2Cl)C1` [Example 7], the pIC50 was 8.85.
